# From patent US20060258755A1, “Preparation of sevoflurane with negligible water content” (priority 2005, published 2006)
# Legend:
# Format in all cases: physicochemical
# [1] = Storage stability of sevoflurane stored with Type 3A molecular sieve in Type III glass
# From the text: Another sample of sevoflurane (40 g) was stored with 2 g of Type 3A molecular sieve (an alumino silicate that contains Al2O3, identified as a Lewis acid in the '176 patent) in July 2000. This sample was in a new Type III glass container for six months at ambient temperatures.
# Starting in July 2000, 40 g of sevoflurane (Abbott Laboratories Lot # 35-621 -DK-03) was stored in the presence of 2 g of Type 3A molecular sieve for 20 months in a dried, new Type III amber glass bottle at room temperature. The initial water content was 218 ppm and was essentially zero after 16 hours of contact with the molecular sieve (as determined by Karl Fischer, a method known to those skilled in the art with a detection limit of about 1 ppm or less).
# Starting in July 2000, a sample of sevoflurane (from the lot described in Example 1) was held at room temperature (25-27° C.) over Type 3A molecular sieve for two-and-a-half months in a dried, new Type III amber glass bottle.
# [2] = Stability trial of sevoflurane dried over Type 3A molecular sieve, packaged in glass bottles or epoxy-lined drums; settings: for decomposition / % sevoflurane by gas chromatography: dried to 0 ppm water, 30 days at 40° C. and 75% relative humidity; for % sevoflurane by gas chromatography: initial 99.99%
# Experimental: Sevoflurane (99.99%, produced January 2005) was dried over Type 3A molecular sieve using a continuous flow bed apparatus to a water-composition of 0.0 wt % (or 0 ppm) as measured by Karl Fischer. 100 ml of sevoflurane was packaged into a Type III amber glass bottle and sealed for a 30-day stability trial at 40° C. and 75% relative humidity. At the end of this time, the sevoflurane was 99.99% as determined by gas chromatography.
# Sevoflurane (99.99%, produced January 2005) was dried over Type 3A molecular sieve using a continuous flow bed apparatus to a water composition of 0.0 wt % (or 0 ppm) as measured by Karl Fischer. 250 ml of sevoflurane was packaged into a Type III amber glass bottle and sealed for a 30-day stability trial at 40° C. and 75% relative humidity. At the end of this time, the sevoflurane was 99.99% as determined by gas chromatography.
# Sevoflurane (99.99%, produced January 2005) was dried over Type 3A molecular sieve using a continuous flow bed apparatus to a water composition of 0.0 wt % (or 0 ppm) as measured by Karl Fischer. 28.1 kg of sevoflurane was packaged in a five-gallon epoxy-lined drum and sealed for a 30-day stability trial at 40° C. and 75% relative humidity. At the end of this time, the % sevoflurane was 99.99% as determined by gas chromatography.
# Purified Sevoflurane was dried over Type 3A molecular sieve using a continuous flow bed apparatus to negligible or near-negligible water compositions as measured by Karl Fischer. The dried material was packaged into 100 mL or 250 mL Type III amber glass bottles or into 5 gal epoxy-lined drums and subsequently stored as part of a stability trial under controlled or ambient conditions.
# The sevoflurane used in examples 8-11 was produced by the method described in pending U.S. patent application Ser. No. 11/281,293, filed Nov. 17, 2005, the disclosure of which is incorporated herein by reference.
# [3] = Water saturation limit of sevoflurane; settings: second sample of Example 4 (28 g)
# Experimental: Currently available processes for the preparation of sevoflurane generally give a product containing dissolved water up to 0.12 to 0.14 wt %, or 1200 to 1400 ppm, the approximate water saturation limit of sevoflurane. […] This sample was sealed in September 2000 in a new Type III glass bottle as previously described and stored at 40° C. for four weeks.
# [4] = Storage stability of sevoflurane in Type III glass bottle (gas chromatography, Karl Fischer)
# Experimental: In one experiment initiated in August 2000, sevoflurane (Abbott Laboratories, Lot #61-339-DK, Expiration Date Aug. 1, 2001) was dried to 0 ppm water content using Type 3A molecular sieve. Drying was performed by mixing the sevoflurane with molecular sieves and then allowing these materials to stand together for several hours. The water content was determined by Karl Fischer analysis. A sample of the dried sevoflurane was placed in a new amber Type III glass bottle, which had been dried at 100° C. for 2 hours. The bottle was sealed with a black phenolic/urea resin cap and a polyseal liner of polyethylene resin and shrink-wrapped or wrapped with Teflon® tape and shrink-wrapped. The sample was then held at room temperature (25-27° C.) and at ambient relative humidity. […] One undried lot of sevoflurane from Abbott Laboratories (Lot #0 335 70 K, Expiration Date Apr. 1, 1997, stored in a Type III bottle) was analyzed in May and October 2000. This sevoflurane was 97 ppm H2O and 99.9916% sevoflurane by gas chromatography.
# [5] = Storage stability of sevoflurane in the presence of iron oxide (Fe2O3, a Lewis acid)
# Experimental: A sample of sevoflurane containing 30 ppm of water and 0.05 g Fe2O3 (iron oxide) was placed in a new Type III amber glass bottle in July 2000 and sealed as previously described. […] This sample was sealed in September 2000 in a new Type III glass bottle as previously described and stored at 40° C. for four weeks.
# [6] = 40 g with 2 g Type 3A molecular sieve, new Type III glass container, six months at ambient temperatures
# [7] = lot of Example 1 over Type 3A molecular sieve, dried, new Type III amber glass bottle, room temperature (25-27° C.), two-and-a-half months
# [8] = 5 gal epoxy-lined drum, Mfg. April 2005, initial water 6 ppm, 60 days, 40 C./75% RH
# [9] = 5 gal epoxy-lined drum, Mfg. April 2005, initial water 10 ppm, 9 months, Ambient
# [10] = 5 gal epoxy-lined drum, Mfg. February 2005, initial water 0 ppm, 12 months, 40 C./75% RH
# [11] = 5 gal epoxy-lined drum, Mfg. February 2005, initial water 0 ppm, 12 months, Ambient
# [12] = 5 gal epoxy-lined drum, Mfg. January 2005, initial water 0 ppm, 6 months, 40 C./75% RH
# [13] = 5 gal epoxy-lined drum, Mfg. January 2005, initial water 0 ppm, 90 days, Ambient
# [14] = 100 mL Type III amber glass bottle, Mfg. February 2005, initial water 0 ppm, 9 months, 25 C./60% RH
# [15] = 100 mL Type III amber glass bottle, Mfg. February 2005, initial water 0 ppm, 60 days, 40 C./75% RH
# [16] = 250 mL Type III amber glass bottle, Mfg. April 2005, initial water 5 ppm, 6 months, 25 C./60% RH
# [17] = 250 mL Type III amber glass bottle, Mfg. April 2005, initial water 5 ppm, 90 days, 40 C./75% RH
# [18] = 250 mL Type III amber glass bottle, Mfg. February 2005, initial water 0 ppm, 9 months, 25 C./60% RH
# [19] = 250 mL Type III amber glass bottle, Mfg. February 2005, initial water 0 ppm, 60 days, 40 C./75% RH
# [20] = 250 mL Type III amber glass bottle, Mfg. January 2005, initial water 0 ppm, 12 months, 25 C./60% RH
# [21] = 28.1 kg in five-gallon epoxy-lined drum
# [22] = 100 ml in Type III amber glass bottle
# [23] = 250 ml in Type III amber glass bottle
# [24] = undried Abbott Lot #0 335 70 K, 97 ppm H2O, Type III bottle, ambient temperature for about five years
# [25] = 28 g saturated with water (1235 ppm), 0.07 g Fe2O3, new Type III glass bottle, 40° C. for four weeks
# [26] = 30 ppm water, 0.05 g Fe2O3, new Type III amber glass bottle, four weeks at 40° C.
compound,measurement,setting,value
"FCOC(C(F)(F)F)C(F)(F)F [sevoflurane, 1,1,1,3,3,3-hexafluoroisopropyl fluoromethyl ether]",decomposition,"[1]; 40 g Abbott Lot # 35-621 -DK-03 with 2 g Type 3A molecular sieve, dried, new Type III amber glass bottle, room temperature, 20 months",no evidence of any decomposition
same,% sevoflurane by gas chromatography,"[1]; 40 g Abbott Lot # 35-621 -DK-03 with 2 g Type 3A molecular sieve, dried, new Type III amber glass bottle, room temperature, 20 months, initial water 218 ppm, essentially zero after 16 hours",99.997%
same,% sevoflurane by gas chromatography,[1]; [6],greater than 99.99%
same,decomposition,[1]; [6],No decomposition
same,% sevoflurane by gas chromatography,[1]; [7],greater than 99.99%
same,decomposition,[1]; [7],no decomposition
same,Final Comp.,[2]; [8],99.998%
same,Result (decomposition),[2]; [8],No
same,Final Comp.,[2]; [9],99.998%
same,Result (decomposition),[2]; [9],No
same,Final Comp.,[2]; [10],99.98%
same,Result (decomposition),[2]; [10],No
same,Final Comp.,[2]; [11],99.98%
same,Result (decomposition),[2]; [11],No
same,Final Comp.,[2]; [12],99.98%
same,Result (decomposition),[2]; [12],No
same,Final Comp.,[2]; [13],99.99%
same,Result (decomposition),[2]; [13],No
same,Final Comp.,[2]; [14],99.98%
same,Result (decomposition),[2]; [14],No
same,Final Comp.,[2]; [15],99.99%
same,Result (decomposition),[2]; [15],No
same,Final Comp.,[2]; [16],99.997%
same,Result (decomposition),[2]; [16],No
same,Final Comp.,[2]; [17],99.997%
same,Result (decomposition),[2]; [17],No
same,Final Comp.,[2]; [18],99.98%
same,Result (decomposition),[2]; [18],No
same,Final Comp.,[2]; [19],99.98%
same,Result (decomposition),[2]; [19],No
same,Final Comp.,[2]; [20],99.99%
same,Result (decomposition),[2]; [20],No
same,decomposition,[2]; [21],no decomposition
same,% sevoflurane by gas chromatography,[2]; [21],99.99%
same,decomposition,[2]; [22],no decomposition
same,% sevoflurane by gas chromatography,[2]; [22],99.99%
same,decomposition,[2]; [23],no decomposition
same,% sevoflurane by gas chromatography,[2]; [23],99.99%
same,water content of sevoflurane saturated with water,[3],1235 ppm
same,% sevoflurane by gas chromatography,"[4]; Abbott Lot #61-339-DK dried to 0 ppm water with Type 3A molecular sieve, new amber Type III glass bottle, room temperature (25-27° C.), ambient relative humidity, four weeks",99.998%
same,water (Karl Fischer analysis) at end of stability run,"[4]; Abbott Lot #61-339-DK dried to 0 ppm water, new amber Type III glass bottle, room temperature (25-27° C.), ambient relative humidity, four weeks",68 ppm
same,decomposition,"[4]; Abbott Lot #61-339-DK dried to 0 ppm water, new amber Type III glass bottle, room temperature (25-27° C.), four weeks",no decomposition
same,% sevoflurane by gas chromatography,[4]; [24],99.9916%
same,decomposition,[4]; [24],without decomposition
same,decomposition,[5]; [25],no decomposition
same,purity by gas chromatography,[5]; [25],99.97%
same,% (CF3)2CHOCH2OCH(CF3)2 decomposition product by gas chromatographic analyses,[5]; [26],6.33%
same,% (CF3)2CHOH decomposition product by gas chromatographic analyses,[5]; [26],0.49%
same,% sevoflurane by gas chromatographic analyses,[5]; [26],90.7%
